Assay results from patent EP0187619A2, “1,3-Disubstituted tetrahydropyridines” (priority 1985, dated 1986).

Columns and labels:
[1] = system: amnesiogene Wirkung eines Elektroschocks; test: Two-compartment test: protection against electroshock-induced amnesia; type: in vivo, Maus; conditions: for antiamnesiogener Effekt: significance by Mann-Whitney U test
Experimental: So vermindern sie an der Maus in Dosen ab etwa 0,1 mg/kg i.p. sowie p.o. die amnesiogene Wirkung eines Elektroschocks in mindestens gleichem Ausmass wie nach Verabfolgung einer nootrop wirksamen Dosis von Piracetam (100 mg/kg i.p.). Zum Nachweis der nootropen Wirkung kann beispielsweise der Two-Compartment-Test herangezogen werden.
Als Literatur über pharmakologische Modelle dieser Art seien z.B. genannt: S.J. Sara und D. Lefevre, Paychopharmacologia 25, 32-40 (1972), Hypoxia-induced amnesia in one-trial learning and pharmacological protection by piracetam. Boggan, W.O., und Schlesinger, K., in Behavioral Biology 12, 127-134 (1974).

[2] = Step-down Passive Avoidance Test (Mondadori and Waser): memory improvement; type: in vivo; conditions: for Gedächtnisverbesserung: significance by Mann-Whitney U test; for Dosis, um die gedächtnisverbessernde Wirkung von 0,1 mg/kg i.p. von 1-[2-(Indol-3-yl)ethyl]-1,2,5,6,-tetrahydro-pyridin-3-carbonsauremethylester zu erzielen / Dosis relativ zu 1-[2-(Indol-3-yl)ethyl]-1,2,5,6,-tetrahydro-pyridin-3-carbonsauremethylester für gleiche gedächtnisverbessernde Wirkung: i.p.; for Dosis relativ zu 1-[2-(Indol-3-yl)ethyl]-1,2,5,6,-tetrahydro-pyridin-3-carbonsauremethylester für gleiche gedächtnisverbessernde Wirkung: 10 mg/kg versus 0,1 mg/kg
Experimental: Insbesondere zeigen die Verbindungen der Formel I eine starke gedächtnisverbessernde Wirkung im Step-down Passive Avoidance Test nach Mondadori und Waser, Psychopharmacology 63, 297-300 (1979). Die Substanzen sind wirksam bei intraperitonealer Gabe 30 Minuten vor dem Lernversuch (wirksame Dosen 0,1, 1, 10 mg/kg). Eine deutliche Wirkung war auch feststellbar bei peroraler Applikation 60 Minuten vor dem Lernversuch (wirksame Dosen 0,1, 1, 10 mg/kg) sowie bei intraperitonealer Applikation unmittelbar nach dem Lernversuch (wirksame Dosen 0,1, 1, 10 mg/kg). […] Daraus ergibt sich, dass, um die gedächtnisverbessernde Wirkung von 0,1 mg/kg i.p. von 1-[2-(Indol-3-yl)ethyl]-1,2,5,6,-tetrahydro-pyridin-3-carbonsauremethylester zu erzielen, 10 mg/kg i.p., d.h. die 100-fache Dosis eines Isomeren A, B und C benötigt werden. Die Signifikanzangaben beziehen sich, ebenso wie im vorhergehenden Absatz, auf den U-Test von Mann und Whitney.

Row | SMILES | antiamnesiogener Effekt ([1]; 0,1 mg/kg i.p.) | antiamnesiogener Effekt ([1]; 10 mg/kg i.p.) | antiamnesiogener Effekt ([1]; 1,0 mg/kg i.p.) | Gedächtnisverbesserung ([2]; 0,1 mg/kg i.p.) | Gedächtnisverbesserung ([2]; 10 mg/kg i.p.) | Gedächtnisverbesserung ([2]; 1,0 mg/kg i.p.) | Dosis, um die gedächtnisverbessernde Wirkung von 0,1 mg/kg i.p. von 1-[2-(Indol-3-yl)ethyl]-1,2,5,6,-tetrahydro-pyridin-3-carbonsauremethylester zu erzielen [2] [mg/kg] | Dosis relativ zu 1-[2-(Indol-3-yl)ethyl]-1,2,5,6,-tetrahydro-pyridin-3-carbonsauremethylester für gleiche gedächtnisverbessernde Wirkung [2] | nootrop wirksame Dosis ([1]; Maus, i.p., reference) [mg/kg]
1 | CCOC(=O)C1=CCCN(Cc2c[nH]c3ccccc23)C1 [Isomere B, 1-(Indol-3-yl)methyl-l,2,5,6-tetrahydro-pyridin-3-carbonsäureethylester] | ähnlichen, jedoch weniger signifikanten (p<0,05) Effekt | ähnlichen, jedoch weniger signifikanten (p<0,05) Effekt | ähnlichen, jedoch weniger signifikanten (p<0,05) Effekt | keinen | signifikanten (p<0,05) Effekt | keinen | 10 | 100 -fache Dosis | 
2 | COC(=O)C1=CCCN(CCc2c[nH]c3ccccc23)C1 [1-[2-(Indol-3-yl)ethyl]-1,2,5,6-tetrahydro-pyridin-3-carbonsäuremethylester] | hochsignifikanten (p<0,01) antiamnesiogenen Effekt |  | hochsignifikanten (p<0,01) antiamnesiogenen Effekt | signifikante (p<0,05) | hochsignifikante (p<0,01) | signifikante (p<0,05) |  |  | 
3 | NC(=O)CN1CCCC1=O [Piracetam] |  |  |  |  |  |  |  |  | 100
4 | COC(=O)C1=CCN(CCc2c[nH]c3ccccc23)CC1 [Isomere C, 1-[2-(Indol-3-yl)ethyl]-1,2,5,6-tetrahydro-pyridin-4-carbonsäuremethylester] | keine signifikante antiamnesiogene Wirkung | keine signifikante antiamnesiogene Wirkung | keine signifikante antiamnesiogene Wirkung | keinen | signifikanten (p<0,05) Effekt | keinen | 10 | 100 -fache Dosis | 
5 | COC(=O)C1=CN(CCc2c[nH]c3ccccc23)CCC1 [Isomere A, 1-(2-(Indol-3-yl)-ethyl]-1,4,5,6-tetrahydro-pyridin-3-carbonsäuremethylester] | keinen signifikanten | keinen signifikanten | gewissen (nur einseitig signifikanten) | keinen | signifikanten (p<0,05) Effekt | keinen | 10 | 100 -fache Dosis | 
